Experimental findings from PubChem BioAssay (NCI) are described below.

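Interpolation was linear, between the two tested concentrations surrounding the appropriate level; five concentrations were tested over 48 hours in 96-well plates. At the GI50, growth is halved. TGI denotes the concentration required for complete inhibition of growth.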 Some results are limits rather than exact numbers.

What all share (assay): NCI tumour cell line growth inhibition, 48 h
In test [1] the test system is A549 NSCLC.
The subject of test [2] is HOP-92 NSCLC.
Test [3] deals with K-562 leukemia.
For test [4], the system named is LOX IMVI melanoma.
Test [5] has as its system M14 melanoma.
The subject of test [6] is MDA-MB-435.
Test [7] has as its system RPMI-8226 leukemia.
Test [8] deals with SK-MEL-5 melanoma.
The test system of test [9] is EKVX NSCLC.
Test [10] has as its system RXF 393 renal.

As for `CCC(=O)Nc1nnc(Cc2ccc(OC)c(OC)c2)s1`, the GI50 was more than 100 µM in test [1]; 78.7 µM in test [2]; more than 100 µM in [3]; more than 100 µM in test [4]; more than 100 µM in test [5]; more than 100 µM in [6]. The GI50 in test [7] and in [8] was more than 100 µM each time. The TGI in test [1], in [2], in test [3], in test [4], in test [5] and in [6] was more than 100 µM each time. Moreover, the TGI in test [7] and in [8] was more than 100 µM each time.
Consider `CCOCCOCCOCCOCCOCCOCCOCCOCCOCCO` (tested in a mixture with another compound), for which the GI50 was 1.21 µM in test [1]; 1.26 µM in [9]; 0.643 µM in [2]; 0.81 µM in test [4]; 2.02 µM in [5]; 1.45 µM in test [6]. The results for the GI50 in test [10] and in [8] were 1.85 µM and 0.586 µM, respectively. In addition, the TGI was 8.66 µM in [1]; 9.62 µM in test [9]; 2.9 µM in test [2]; 2.9 µM in test [4]; 7.08 µM in [5]; 8.88 µM in test [10]. This compound also returned a TGI in [8] of 1.81 µM.
With `COc1cc(C(=O)n2nc(N)c3c(C)cc(C)nc32)cc(OC)c1OC`, the GI50 in test [1] was 41.5 µM; in [2], more than 100 µM; in test [3], 0.488 µM; in test [4] it was more than 100 µM; in [5], more than 73.7 µM; in [6], 0.325 µM. The values for the GI50 in test [7], in [10] and in test [8] were more than 82.1 µM, 25.3 µM and 35.2 µM, respectively. In addition, the TGI in [1] is more than 100 µM; in test [2] it was more than 100 µM; in [3], more than 100 µM; in test [4], more than 100 µM; in [5], more than 100 µM; in [6], 6.01 µM. Also, the TGI in test [7], in test [10] and in test [8] was more than 100 µM throughout.
With `CSc1nc(SC)c2c(C)cn(COCCOC(=O)c3ccccc3)c2n1`, the TGI in test [1] was more than 100 µM; in [9], more than 100 µM; in [2] it was 99.7 µM; in test [4], more than 100 µM; in test [5] it was more than 100 µM; in test [6], more than 100 µM. The TGI in test [7], in test [10] and in test [8] was more than 100 µM in each case.
`N#CC1=C(N)OC2=C(CCOc3c2ccc2ccccc32)C1c1ccc(Br)cc1` (configuration not stated): the GI50 in [1] is 47.1 µM; in test [9], more than 100 µM; in test [2] it was 14.1 µM; in test [3], 16.5 µM; in test [5] it was 26.9 µM; in [6], 16 µM. Further, the GI50 was 13.5 µM in test [7] and 22.8 µM in test [10]. The TGI is more than 100 µM in [1]; more than 100 µM in test [9]; 47.4 µM in test [2]; 54.3 µM in test [3]; more than 100 µM in test [5]; 61.2 µM in [6]. Further, the figures for the TGI in [7] and in test [10] were 40.8 µM and 80.9 µM, respectively.
In the case of `Oc1[nH]c2ccccc2c1C=Nc1ccc(-n2cncn2)cc1`, the GI50 in test [1] was more than 18.5 µM; in test [9], more than 25 µM; in [3] it was 13.6 µM; in test [4] it was more than 19.2 µM; in test [5], more than 25 µM; in test [6], more than 25 µM. The GI50 was 18.3 µM in test [7], more than 14.5 µM in test [10] and 8.74 µM in test [8]. In addition, the TGI in test [1], in test [9], in test [3], in test [4], in [5] and in test [6] was more than 25 µM each time. Moreover, the TGI in test [7], in test [10] and in test [8] was more than 25 µM in each case.
Take `CCc1c(C)c2cc(-n3c(-c4ccc(OC)cc4)csc3=N)c(O)c(C)c2oc1=O`: the GI50 in test [1] was 2.7 µM; in [9], 1.24 µM; in test [2] it was 1.88 µM; in test [5], 1.41 µM; in [6], 0.355 µM; in [10] it was 1.74 µM. The TGI came to 12.3 µM in test [1]; 11.1 µM in test [9]; 7.76 µM in [2]; 6.59 µM in [5]; 4.16 µM in test [6]; 6.7 µM in test [10].
Regarding `COc1cc(-c2ccc[nH]2)[nH]c1/C=C1\N=C(C)C(CC(=O)OCC(C)(C)C)=C1C`, the GI50 in test [1] was 0.244 µM; in [9], 0.0903 µM; in test [2] it was 0.11 µM; in test [3], 0.34 µM; in test [4], 0.0733 µM; in test [5], 0.212 µM. Besides, the GI50 was 0.282 µM in [6], 0.258 µM in test [10] and 0.137 µM in [8]. Besides, the TGI was 1.24 µM in test [1]; 1.7 µM in test [9]; 0.531 µM in test [2]; 1.37 µM in [3]; 0.467 µM in [4]; 0.658 µM in [5]. Further, the TGI came out at 1.2 µM in test [6], 1.21 µM in [10] and 0.279 µM in test [8].
As for `COc1ccc(/C=C/c2ccnc3ccccc23)cc1OC`, the TGI in [1] is 31.2 µM; in [9], 27.9 µM; in test [3] it was 22.1 µM; in test [4], 21.6 µM; in [5] it was 34.9 µM; in [6], 28.6 µM. Moreover, the TGI in [7] came out at 57.1 µM; in [10] it was 27.2 µM; in [8], 28 µM.
Regarding `O=C1C=CC(=O)c2c1nc(CBr)[nH]c2=O`, the TGI in test [1] is more than 100 µM; in test [9], more than 100 µM; in test [3] it was more than 100 µM; in test [4], more than 100 µM; in [5], more than 100 µM; in [6], 87.4 µM. The TGI in [7], in [10] and in [8] was more than 100 µM each time.
Consider `CN1CCN(c2ccc(NC3=CC(=O)c4ncncc4C3=O)cc2)CC1`, for which the GI50 was 0.405 µM in test [1]; 0.56 µM in [9]; 0.312 µM in test [2]; 0.192 µM in test [4]; 0.276 µM in [5]; 0.191 µM in test [6]. Besides, the values for the GI50 in test [7], in test [10] and in test [8] were 0.261 µM, 1.29 µM and 0.302 µM, respectively. The TGI in [1] turned out to be 2.3 µM; in test [9], 2.15 µM; in test [2] it was 0.993 µM; in test [4] it was 0.401 µM; in [5] it was 0.744 µM; in test [6], 0.35 µM. The figures for the TGI in test [7], in [10] and in test [8] were 0.75 µM, 2.61 µM and 0.871 µM, respectively.
`C[C@]12CCC(=O)C[C@@H]1CC[C@@H]1[C@@H]2CC[C@]2(C)[C@@H](OC(=O)N(CCCl)N=O)CC[C@@H]12`: the GI50 is 0.353 µM in [1]; 4.88 µM in test [9]; 0.179 µM in [2]; 2.69 µM in test [3]; 0.625 µM in test [4]; 0.752 µM in [5]. For the same compound, the GI50 in [6] is 1.07 µM; in [7], 2.02 µM; in test [8] it was 1.05 µM. Further, the TGI in test [1] was 11.6 µM; in test [9] it was more than 41.1 µM; in test [2], 11.1 µM; in test [3], more than 43.4 µM; in test [4], 15.4 µM; in [5], 22.3 µM. Also, the TGI is 18.1 µM in [6], 6.89 µM in test [7] and 6.16 µM in test [8].
In the case of `CN(CCCCCl)P(=O)(OCc1ccc([N+](=O)[O-])o1)OCC1OC(n2cc([N+](=O)[O-])c(=O)[nH]c2=O)CC1O` (configuration not stated), the GI50 in [1] was more than 100 µM; in test [9], more than 100 µM; in test [3] it was 49.8 µM; in [4] it was 47.3 µM; in test [5], 31.3 µM; in test [6], more than 100 µM. The GI50 in [7], in test [10] and in test [8] was more than 100 µM in each case. The TGI in [1], in test [9], in test [3], in [4], in test [5] and in [6] was more than 100 µM in each case. In addition, the TGI in [7], in [10] and in test [8] was more than 100 µM each time.
In the case of `Cc1ccc(-c2nc3sc(C)cn3c2/C=C2\C(=O)Nc3ccc(Cl)cc32)cc1`, the GI50 was 14.1 µM in [1]; 16 µM in test [9]; 7.66 µM in [2]; 22.8 µM in test [3]; 13.8 µM in [4]; 15.5 µM in test [5]. In addition, the GI50 in test [6] was 18 µM; in test [7], 22.4 µM; in test [8], 15.5 µM. The TGI in test [1] was found to be 27.8 µM; in test [9], 39.3 µM; in test [2], 25.1 µM; in [3], 84.1 µM; in test [4], 26.7 µM; in [5], 29.9 µM. In addition, the TGI in [6] turned out to be 34.8 µM; in test [7], 58.6 µM; in [8] it was 30.4 µM.
Regarding `COc1ccc(-c2c(-c3ccc(C#N)c(F)c3)nc(N3CCC(N)CC3)n(C)c2=O)cc1F`, the GI50 in [1] was 29.8 µM; in test [9], 15.5 µM; in test [3] it was 11.6 µM; in test [4] it was 13.1 µM; in [5], 17.5 µM; in [6] it was 14.4 µM. For the same compound, the GI50 in [7] was 18.4 µM; in test [10] it was 7.41 µM; in test [8] it was 14.9 µM. Also, the TGI was more than 100 µM in [1]; 52.8 µM in test [9]; 28.5 µM in [3]; 26 µM in test [4]; 34.9 µM in [5]; 28.9 µM in test [6]. Also, the TGI stood at 49.1 µM in test [7], 23.6 µM in [10] and 28.4 µM in test [8].
Take `Cc1c(C(N)=O)sc2nc(C)n(/N=c3\scc(-c4ccccc4)n3Cc3ccccc3)c(=O)c12`: the GI50 in [1] was 3.79 µM; in [2] it was 1.34 µM; in [3], 8.89 µM; in [4] it was 3.54 µM; in test [5], 3.88 µM; in [6] it was 2.89 µM. Besides, the GI50 is 13.9 µM in test [7] and 1.81 µM in [8]. Also, the TGI in test [1] is more than 100 µM; in test [2], 5.33 µM; in test [3] it was more than 100 µM; in test [4] it was more than 100 µM; in test [5] it was 84.5 µM; in test [6], 12.5 µM. In addition, the TGI in [7] was more than 100 µM; in [8] it was 3.75 µM.
Consider `COc1cc(C(=O)O[C@H](C(=O)NCCCCNC(=O)[C@@H](OC(=O)c2cc(OC)cc3c(C)cccc23)[C@]2(C)CO2)[C@]2(C)CO2)c2cccc(C)c2c1`, for which the GI50 in test [1] is 0.26 µM; in [9], 0.227 µM; in test [2], 0.0452 µM; in [4], less than 0.01 µM; in test [5], 0.0769 µM; in [6], 0.144 µM. Also, the figures for the GI50 in [7] and in [8] were 0.195 µM and 0.0203 µM, respectively. For the same compound, the TGI in [1] was 0.699 µM; in test [9] it was 2.57 µM; in test [2], 0.22 µM; in test [3], 3.05 µM; in [4], less than 0.01 µM; in [5] it was 0.591 µM. The TGI in [6] stood at 0.61 µM; in test [7], 3.86 µM; in test [8], 0.233 µM.
With `O=C1C(Cl)=C(NCCCN(CCCNC2=C(Cl)C(=O)c3ccccc3C2=O)C2=C(Cl)C(=O)c3ccccc3C2=O)C(=O)c2ccccc21`, the GI50 was 3.43 µM in [1]; 2.62 µM in [9]; 2.23 µM in test [2]; 1.74 µM in [6]; 3.8 µM in test [7]; 10.7 µM in [10]. Also, the GI50 in [8] is 1.18 µM. Besides, the TGI in test [1] is more than 100 µM; in test [9] it was 13.9 µM; in test [2] it was 14 µM; in test [6], 3.26 µM; in test [7], more than 100 µM; in [10], 22.5 µM. Also, in [8], the TGI worked out at 2.43 µM.
